The subject of one test is Alternaria solani. Briefly: Test B: tomato early blight, preventive spray on tomato seedlings, visual disease rating. The following applies: for Test B rating (disease control): 0 = no disease control relative to the controls; for pest or weed control at 200 µg/mL: Alternaria solani, in Solanum lycopersicum, read-out: Test B rating (disease control).
Test [1] relates to Blumeria graminis f. sp. tritici. Briefly: Test I: wheat powdery mildew, preventive spray on wheat seedlings, visual disease rating. Conditions: 100 = 100% disease control; for Test I rating (disease control) / pest or weed control at 200 µg/mL: 0 = no disease control relative to the controls; for pest or weed control at 200 µg/mL: Blumeria graminis, in Triticum aestivum, read-out: Test I rating (disease control), wheat powdery mildew.

The test system of a further test is Botrytis cinerea. Briefly: Test A: tomato Botrytis, preventive spray on tomato seedlings, visual disease rating. The following applies: 100 = 100% disease control; for Test A rating (disease control) / pest or weed control at 200 µg/mL: 0 = no disease control relative to the controls; for pest or weed control at 200 µg/mL: Botrytis cinerea, in Solanum lycopersicum, read-out: Test A rating (disease control), tomato Botrytis.

Test [2] relates to Puccinia recondita f. sp. tritici. Briefly: Test H: wheat leaf rust, preventive spray on wheat seedlings, visual disease rating. The following applies: 100 = 100% disease control; for Test H rating (disease control): sprayed the day before inoculation; for Test H rating (disease control) / pest or weed control at 200 µg/mL: 0 = no disease control; for pest or weed control at 200 µg/mL: read-out: Test H rating (disease control), wheat leaf rust, sprayed the day before inoculation.
Description: General protocol for preparing test suspensions for Tests A-I: the test compounds were first dissolved in acetone in an amount equal to 3% of the final volume and then suspended at the desired concentration (in ppm) in acetone and purified water (50/50 mix by volume) containing 250 ppm of the surfactant Trem® 014 (polyhydric alcohol esters). The resulting test suspensions were then used in Tests A-I. Each test was conducted in triplicate, and the results were averaged. Spraying a 200 ppm test suspension to the point of run-off on the test plants was the equivalent of a rate of about 800 g/ha. Unless otherwise indicated, the rating values indicate a 200 ppm test suspension was used. (An asterisk “*” next to the rating value indicates a 40 ppm test suspension was used.)
The test suspension was sprayed to the point of run-off on wheat seedlings. The following day the seedlings were inoculated with a spore suspension of Puccinia recondita f. sp. tritici (the causal agent of wheat leaf rust) and incubated in a saturated atmosphere at 20° C. for 24 h, and then moved to a growth chamber at 20° C. for 6 days, after which time visual disease ratings were made.

Another test concerns Septoria tritici. Briefly: Test F: wheat leaf blotch, preventive spray on wheat seedlings, visual disease rating. The class given is in vivo. Conditions: 100 = 100% disease control; for Test F rating (disease control) / pest or weed control at 200 µg/mL: 0 = no disease control relative to the controls; for pest or weed control at 200 µg/mL: Zymoseptoria tritici. The text has this: (§1) A hyphen (-) indicates no test results.

The subject of a further test is Septoria nodorum. In words: Test E: Septoria glume blotch, preventive spray on wheat seedlings, visual disease rating. Conditions: 100 = 100% disease control; for Test E rating (disease control): Septoria glume blotch; for Test E rating (disease control) / pest or weed control at 200 µg/mL: 0 = no disease control relative to the controls; for pest or weed control at 200 µg/mL: Parastagonospora nodorum, in Triticum aestivum, read-out: Test E rating (disease control), Septoria glume blotch.

Test [3] concerns Puccinia recondita f. sp. tritici. In words: Test G: wheat leaf rust, spray after inoculation (curative) on wheat seedlings, visual disease rating. The class given is in vivo. Conditions: 100 = 100% disease control; for Test G rating (disease control) / pest or weed control at 200 µg/mL: sprayed after inoculation, 0 = no disease control.
Description: as §1

Where [4] appears, read: tomato early blight, 100 = 100% disease control.

The values that follow come from patent US20170150719A1, “FUNGICIDAL PYRAZOLES AND THEIR MIXTURES” (E I DU PONT DE NEMOURS AND COMPANY, priority 2010, published 2017).

Consider `CCOc1ccc(-c2c(C)nn(C)c2Nc2c(F)cc(Cl)cc2F)c(Cl)c1` [compound 207], for which the “Test B rating (% disease control)” value with Alternaria solani (tomato early blight, preventive spray, 100 = 100% disease control, rating without asterisk) is 99%. The “Test I rating (% disease control)” value in test [1] (wheat powdery mildew, preventive spray, rating without asterisk) is reported as 99%. For the same compound, in the test with Botrytis cinerea (tomato Botrytis, preventive spray, 0 = no control relative to controls, rating without asterisk), the “Test A rating (% disease control)” value is listed as 94%. Further, in test [2] (wheat leaf rust, preventive spray, rating without asterisk), the “Test H rating (% disease control)” value was found to be 94%. Also, in the test with Septoria tritici (preventive spray, rating without asterisk), the “Test F rating (% disease control)” value came out at 100%. For the same compound, the “Test E rating (% disease control)” value with Septoria nodorum (Septoria glume blotch on wheat, preventive spray, rating without asterisk) came out at 86%. Moreover, in test [3] (spray after inoculation, rating without asterisk), the “Test G rating (% disease control)” value was 0%.
As for `Cc1nn(C)c(Nc2ccc(F)cc2Cl)c1-c1c(F)cc(C#N)cc1F` [compound 31], in the test on Alternaria solani (setting [4]), the “Test B rating (disease control)” value was found to be 98%. For the same compound, in test [1] (wheat powdery mildew), the “Test I rating (disease control)” value was found to be 100%. The “Test A rating (disease control)” value in the test on Botrytis cinerea (tomato Botrytis) is 100%. In addition, the “Test H rating (disease control)” value in test [2] (wheat leaf rust) came out at 100%. Moreover, the “Test F rating (disease control)” value with Septoria tritici came out at 99%. Besides, in the test on Septoria nodorum, the “Test E rating (disease control)” value worked out at 99%. For the same compound, the “Test G rating (disease control)” value in test [3] is recorded as 53%.
On to `COc1ccc(-c2c(C)nn(C)c2Nc2c(F)cc(F)cc2F)c(Cl)c1` [compound 29], for which the “Test B rating (disease control)” value in the test on Alternaria solani (setting [4]) amounted to 99%. Besides, the “Test I rating (disease control)” value in test [1] (wheat powdery mildew) came to 100%. Besides, in the test with Botrytis cinerea (tomato Botrytis), the “Test A rating (disease control)” value was found to be 100%. The “Test H rating (disease control)” value in test [2] (wheat leaf rust) worked out at 99%. The “Test F rating (disease control)” value in the test on Septoria tritici came out at 99%. The “Test E rating (disease control)” value in the test with Septoria nodorum is 97%. In addition, the “Test G rating (disease control)” value in test [3] was found to be 99%.
Regarding `Cc1nn(C)c(Nc2ccc(F)cc2Cl)c1-c1ccc(C#N)cc1Cl` [compound 112], the “Test B rating (disease control)” value in the test with Alternaria solani (setting [4]) was determined as 37%. Further, the “Test I rating (disease control)” value in test [1] (wheat powdery mildew) came out at 99%. Besides, in the test with Botrytis cinerea (tomato Botrytis), the “Test A rating (disease control)” value stood at 100%. In addition, the “Test H rating (disease control)” value in test [2] (wheat leaf rust) came out at 100%. Also, the “Test F rating (disease control)” value in the test on Septoria tritici is 100%. Besides, the “Test E rating (disease control)” value in the test with Septoria nodorum amounted to 40%. For the same compound, in test [3], the “Test G rating (disease control)” value was determined as 8%.
As to `Cc1nn(C)c(C(O)c2c(F)cc(Cl)cc2F)c1-c1ccc(F)cc1Cl` (stereo not drawn) [Compound 148, α-(4-chloro-2,6-difluorophenyl)-4-(2-chloro-4-fluorophenyl)-1,3-dimethyl-1H-pyrazole-5-methanol], the pest or weed control at 200 µg/mL stood at 0% in the test with Alternaria solani; 64% in test [1]; 100% with Botrytis cinerea; 100% in test [2]; 100% in the test on Septoria tritici; 60% in the test with Septoria nodorum. Also, in test [3], the pest or weed control at 200 µg/mL is 0%.
As for `COc1cc(F)c(Nc2c(-c3c(F)cc(F)cc3F)c(C)nn2C)c(F)c1` [compound 19], the “Test B rating (disease control)” value in the test with Alternaria solani (setting [4]) worked out at 82%. Further, the “Test I rating (disease control)” value in test [1] (wheat powdery mildew) is on record as 91%. Also, the “Test A rating (disease control)” value in the test on Botrytis cinerea (tomato Botrytis) is on record as 99%. In addition, in test [2] (wheat leaf rust), the “Test H rating (disease control)” value worked out at 89%. Moreover, the “Test F rating (disease control)” value with Septoria tritici is on record as 98%. In addition, the “Test E rating (disease control)” value with Septoria nodorum was determined as 0%. For the same compound, in test [3], the “Test G rating (disease control)” value is 0%.
`Cc1nn(C)c(Nc2c(F)cc(Cl)cc2F)c1-c1ccc(F)cc1Br` [Compound 129, 4-(2-bromo-4-fluorophenyl)-N-(4-chloro-2,6-difluorophenyl)-1,3-dimethyl-1H-pyrazol-5-amine]: the pest or weed control at 200 µg/mL in the test with Alternaria solani stood at 97%; in test [1] it was 100%; with Botrytis cinerea it was 100%; in test [2] it was 100%; with Septoria tritici, 100%; in the test with Septoria nodorum, 95%. In test [3], the pest or weed control at 200 µg/mL stood at 79%.
Regarding `Cc1nn(C)c(Nc2c(F)cc(Br)cc2F)c1-c1ccc(F)cc1Cl` [Compound 134, N-(4-bromo-2,6-difluorophenyl)-4-(2-chloro-4-fluorophenyl)-1,3-dimethyl-1H-pyrazol-5-amine], the pest or weed control at 200 µg/mL with Alternaria solani is 99%; in test [1], 100%; in the test on Botrytis cinerea it was 100%; in test [2] it was 100%; with Septoria tritici, 100%; with Septoria nodorum it was 64%. In test [3], the pest or weed control at 200 µg/mL is 74%.
